How the values were obtained:
[1] = biological target: N-terminal domain of galectin-9 (Homo sapiens, UniProt O00182); assay type: cell-based; conditions: CHO wild-type cells, 1 mM
[2] = biological target: galectin-3 (Homo sapiens, UniProt P17931); assay: Cell-based assay: inhibition of galectin-3 surface staining of SW480 cells; conditions: peptides at up to 1 mM
[3] = biological target: galectin-3 (full-length) (Homo sapiens, UniProt P17931); assay: Isothermal titration calorimetry, full-length galectin-3; assay type: binding
[4] = biological target: galectin-3 CRD (Homo sapiens, UniProt P17931); assay: Isothermal titration calorimetry, galectin-3 CRD; assay type: binding
Chain of galectin-3 CRD (P17931 118-248 limits assumed): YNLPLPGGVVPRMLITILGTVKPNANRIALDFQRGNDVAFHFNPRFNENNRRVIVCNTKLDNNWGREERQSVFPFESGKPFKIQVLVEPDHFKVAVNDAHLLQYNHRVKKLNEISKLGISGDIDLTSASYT

Chain of galectin-3 (full-length) (P17931 whole entry): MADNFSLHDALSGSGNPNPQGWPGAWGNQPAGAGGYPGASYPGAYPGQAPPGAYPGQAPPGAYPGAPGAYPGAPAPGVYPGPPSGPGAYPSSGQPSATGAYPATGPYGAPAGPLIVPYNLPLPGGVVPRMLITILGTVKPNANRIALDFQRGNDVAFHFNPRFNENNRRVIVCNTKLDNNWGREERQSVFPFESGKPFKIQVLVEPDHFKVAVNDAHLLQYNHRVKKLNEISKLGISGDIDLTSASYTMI
Chain of N-terminal domain of galectin-9 (O00182 1-148): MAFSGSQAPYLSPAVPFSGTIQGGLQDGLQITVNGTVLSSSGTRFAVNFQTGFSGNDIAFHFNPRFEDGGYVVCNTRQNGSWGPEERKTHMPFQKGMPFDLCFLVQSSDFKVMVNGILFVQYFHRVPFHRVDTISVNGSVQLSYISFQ
Chain of galectin-3 (P17931 whole entry): as the sequence (P17931 whole entry) above

| Structure (SMILES) | inhibition of galectin-9 binding to cells (in words) [1] | inhibition of galectin-3 binding to cells (in words) [2] | Kd [3] [µM] | n (stoichiometry) ([3]; full-length galectin-3, ITC) | –TΔS ([3]; full-length galectin-3, ITC) [kcal/mol] | –ΔH ([3]; full-length galectin-3, ITC) [kcal/mol] | Ka ([3]; full-length galectin-3, ITC, 25 °C, pH 7.2) | Kd [4] [µM] | n (stoichiometry) ([4]; galectin-3 CRD, ITC) | –TΔS ([4]; galectin-3 CRD, ITC) [kcal/mol] | –ΔG ([4]; galectin-3 CRD, ITC) [kcal/mol] | –ΔH ([4]; galectin-3 CRD, ITC) [kcal/mol] | Ka ([4]; galectin-3 CRD, ITC, 25 °C, pH 7.2) |
| --- | --- | --- | --- | --- | --- | --- | --- | --- | --- | --- | --- | --- | --- |
| OC[C@H]1O[C@@H](O[C@H]2[C@H](O)[C@@H](O)C(O)O[C@@H]2CO)[C@H](O)[C@@H](O)[C@H]1O (mixture of isomers) [Lac, lactose] | inhibitory |  |  |  |  |  |  |  |  |  |  |  |  |
| CC(=O)N[C@H]1C(O)O[C@H](CO)[C@H](O)[C@@H]1O (some centres unmarked) [GalNAc, N-acetylgalactosamine] | inhibitory | less active than Lac |  |  |  |  |  |  |  |  |  |  |  |
| CC(=O)N[C@H]1C(O)O[C@H](CO)[C@H](O)[C@@H]1O[C@@H]1O[C@H](CO)[C@H](O)[C@H](O)[C@H]1O (stereo partly drawn) [TF, 2-acetamido-2-deoxy-3-O-(β-D-galactopyranosyl)-D-galactopyranose] |  |  | 245 | 0.82 | 3.30 | 8.74 | 0.40 ×10^–4 M^–1 | 248 | 0.93 | 9.11 | 4.94 | 14.05 | 0.40 ×10^–4 M^–1 |
